Measurements: patent US8642784B2, “Biologically active compound N-[3-(4-nitrophenylamino)-indole-2-ilmethylene]aminoguanidine hydrochloride with anti-inflammatory activity” (priority 2010, dated 2014)
Counter-ions that a name gives are not always drawn. Like-named read-outs stand apart in the source and are kept apart here. Marks after values point to notes of the source that are not given here.

How the values were obtained:
male mice = test: Study of the compound's toxicity: mice mortality, LD50 by Karber method; format: in vivo; settings: for Animal mortality: Alive / Animal mortality: Dead: 5 mice per group, 5 days observation
Description: (§1) Study of the compound of formula 2 was conducted in vivo. […] To determine the doses of the compound that would need to be studied, it is first necessary to study its toxicity. Studies were carried out in male mice with body mass 18-20 g. Compound 2 was administered as a water suspension. Each dose was administered to 5 animals. Behavior and overall condition of animals were observed during 5 days. LD50 (the dose causing the death of 50% of animals) was calculated using Karber method.

[1] = as above; format: in vivo; settings: male, mouse, in vivo; oral; stated as 'may exceed'; read-out: LD50 in oral administration
Description: as §1

mice stomach [2] = test: Aggravation of ulcerogenic effect by indomethacin; format: in vivo
Description: (§2) Studies were performed according to the following scheme: • 1. […] Study of the compounds' ulcerogenic action using pharmaceutical dose during 7 days of administration. • 3. Aggravation of ulcerogenic effects of studied compounds by 0.6H hydrochloric acid. • 4. Aggravation of ulcerogenic effects of studied compounds by the known NSAIDs (indomethacin). 1.
(§3) Ulcerogenic effect was assessed using 4-point scale: 0—no damage; 0.5—hyperemia; 1—insignificant damage (1 or 2 small bleedings); 2—multiple damage (erosions, small bleedings); 3—significant and multiple damage (erosions, bleedings); 4—severe damage, affecting all gastric mucosa (massive bleedings, erosions, perforations).
(§4) Male mice with body mass 23-24 g were deprived of food for 24 hours, water access was not limited.
Drugs of comparison: voltaren—50 mg/kg and aminoguanidine—200 mg/kg. Each test group had 10 animals.

[3] = system: carrageenan-induced peritonitis in mice; test: Carrageenan-induced peritonitis in mice, volume of exudate; format: in vivo
Description: Research was carried out by a method described in [5]. Experiments were performed using male mice with body mass 23-24 g, in groups of 10 animals. […] The results were processed using variation statistics methods for biological research (mean standard error, means were calculated using Student's t-distribution).

[4] = Assessment of other types of pharmaceutical activity
Text: All discovered types of pharmacological activity of compound 2 are present not only in its hydrochloride form, but also in its other pharmaceutically acceptable salts (e.g. Na, K, Ca, Mg), and also in complex combinations with pharmaceutically acceptable complexones (e.g. with glycyrrhizic acid).

[5] = system: adjuvant arthritis in Wistar rats; test: Chronic arthritis (adjuvant arthritis) model in Wistar rats; format: in vivo
Description: Compound of formula 2 was tested in chronic arthritis (adjuvant arthritis) model in Wistar rats.
In the same dose the compound has shown a potent (better than indomethacin) chondroprotective action towards interphalangeal joints of affected leg (x-ray (röntgenography) data). In intragastric administration (analog of per os) the compound has shown systemic anti-inflammatory action (reduction of swelling, leukocytosis, TNFα level, chondroprotective action) that may be associated with the inhibition of delayed type hypersensitivity.

mice stomach [6] = format: in vivo
Description: as §2, §3
After 7 days the animals were sacrificed by CO2, their stomachs extracted and the number of ulcers counted.
(§5) Drugs of comparison: indomethacin 20 mg/kg, voltaren—50 mg/kg and aminoguanidine—200 mg/kg. Each test group had 10 animals.

[7] = system: LPS-induced peritonitis in rats; test: LPS-induced peritonitis in rats, volume of exudate; format: in vivo; settings: for Anti-inflammatory activity in LPS-induced peritonitis model, % of control: rats
Description: (§6) Anti-exudative action was studied in male rate with body mass 170.0-180.0 g. Peritonitis was induced by intraperitoneal administration of lipopolysaccharide (LPS), produced from Escherichia coli (Sigma)—1.0 mg/kg as described in [6]: after 4 hours the animals were sacrificed by CO2, their peritoneal cavity opened and the volume of exudate was measured in ml. Studied compounds and drugs of comparison were administered per os one hour before LPS, control group was composed of rats receiving 0.3 ml of saline before LPS administration. Each group had 7 animals.
(§7) The results were processed using variation statistics methods for biological research (mean standard error, means were calculated using Student's t-distribution).

mice stomach [8] = test: Aggravation of ulcerogenic effects by 0.6H hydrochloric acid; format: in vivo
Description: as §2, §3, §4, §5

[9] = system: LPS-induced peritonitis in mice; test: LPS-induced peritonitis in mice, volume of exudate; format: in vivo
Description: Activity was studies using the methods listed in “Methodical recommendations on experimental (preclinical) research of new nonsteroidal anti-inflammatory drugs” for new compounds screening, in animal models of peritonitis induced by lipopolysaccharide (LPS) and carrageenan.
as §6, with “mice” for “rate”, “mice 22.0-23.0” for “mass 170.0-180.0”, “(Sigma) 1.0 mg/kg,” for “(Sigma)—1.0 mg/kg”, “mice” for “rats”, “10” for “7”
as §7

mice stomach [10] = test: Irritant action on mice stomach, single administration of 500 mg/kg; format: in vivo
Description: Ulcerogenic effect of compound 2 was studied in accordance with Methodical recommendations on experimental (preclinical) research of new nonsteroidal anti-inflammatory drugs. Studies were performed according to the following scheme: • 1. Study of the compounds' irritant action on mice stomach using doses five-times higher than pharmacological dose (single administration). • 2. Study of the compounds' ulcerogenic action using pharmaceutical dose during 7 days of administration. • 3. Aggravation of ulcerogenic effects of studied compounds by 0.6H hydrochloric acid. • 4. Aggravation of ulcerogenic effects of studied compounds by the known NSAIDs (indomethacin). 1. Study of Irritant Action of Compound 2
Male mice with body mass 23-24 g were deprived of food for 24 hours, water access was not limited. Number of animals in a group-10.
Compound 2 in 500 mg/kg dose was administered by a tube into the stomach, after 6 hours the animals were sacrificed, their stomachs extracted, number of ulcers counted and ulcerogenic index calculated. Ulcerogenic effect was assessed using 4-point scale: 0—no damage; 0.5—hyperemia; 1—insignificant damage (1 or 2 small bleedings); 2—multiple damage (erosions, small bleedings); 3—significant and multiple damage (erosions, bleedings); 4—severe damage, affecting all gastric mucosa (massive bleedings, erosions, perforations).

[11] = 50 mg/kg dose, compared with indomethacin

N=C(N)N/N=C\c1[nH]c2ccccc2c1Nc1ccc([N+](=O)[O-])cc1 [Compound 2, N-[3-(4-nitrophenylamino)-indole-2-ilmethylene]aminoguanidine hydrochloride]
Note (behavior) (male mice; 500.0 mg/kg intravenous): Normal behavior
Animal mortality: Alive (male mice; 500.0 mg/kg intravenous): 5
Animal mortality: Dead (male mice; 500.0 mg/kg intravenous): 0
Note (behavior) (male mice; 1000.0 mg/kg intravenous): Normal behavior
Animal mortality: Alive (male mice; 1000.0 mg/kg intravenous): 5
Animal mortality: Dead (male mice; 1000.0 mg/kg intravenous): 0
Note (behavior) (male mice; 1500.0 mg/kg intravenous): Normal behavior
Animal mortality: Alive (male mice; 1500.0 mg/kg intravenous): 5
Animal mortality: Dead (male mice; 1500.0 mg/kg intravenous): 0
Note (behavior) (male mice; 2000.0 mg/kg intravenous): Animals depressed
Animal mortality: Alive (male mice; 2000.0 mg/kg intravenous): 4
Animal mortality: Dead (male mice; 2000.0 mg/kg intravenous): 1
Class of danger as specified by GOST 12.1.007-76 (male mice; after intravenous administration up to 2000.0 mg/kg): third class of danger
LD50 at 5 days [1]: > 5000 mg/kg
Aggravation of ulceration when combined with indomethacin (mice stomach [2]; indomethacin in 20 mg/kg dose): does not aggravate ulceration
Average ulcerogenic index (4-point scale) of combining the studied compounds with indomethacin (mice stomach [2]; mice, compound 2 100 mg/kg, voltaren 50 mg/kg, aminoguanidine 200 mg/kg, 1 hour before indomethacin 20 mg/kg, after 5 hours): 2.2
Anti-inflammatory activity in carrageenan-induced peritonitis model, % of control ([3]; 25.0 mg/kg per os): 3.9 % of control
Anti-inflammatory activity in carrageenan-induced peritonitis model, % of control ([3]; 50.0 mg/kg per os): 21.6* % of control
Anti-inflammatory activity in carrageenan-induced peritonitis model, % of control ([3]; 100.0 mg/kg per os): 45.1* % of control
Anti-inflammatory activity in carrageenan-induced peritonitis model, % of control ([3]; 200.0 mg/kg per os): 84.3* % of control
Other types of pharmaceutical activity [4]: possesses anti-allergic, antihypoxic and analgesic activity
Chondroprotective effect (cartilage width) ([5]; 50 mg/kg dose): chondroprotective effect of compound 2 was noted
Degeneration of articular carriage of hock ([5]; 50 mg/kg dose): partially prevented the degeneration of articular carriage of hock
Development of joint sclerosis and degradation of hind leg interphalangeal joints (x-ray) [5, 11]: most effective in inhibiting the development of joint sclerosis and degradation of hind leg interphalangeal joints, better than the drug of comparison
Level of TNFα in blood plasma [5, 11]: reduced the level of TNFα as good as the drug of comparison
Severity of hind leg swelling ([5]; 50 and 75 mg/kg doses): reduced the severity of hind leg swelling
Development of delayed type hypersensitivity ([5]; adjuvant arthritis, Wistar rats): inhibiting the development of delayed type hypersensitivity
Leukocytosis ([5]; adjuvant arthritis, Wistar rats, intragastric): reducing leukocytosis
Irritant effect on gastric mucosa (mice stomach [6]; chronic use of 200 mg/kg doses): does not have irritant effect on gastric mucosa
Average ulcerogenic index (4-point scale) of chronic administration of pharmacological dose (mice stomach [6]; mice, per os 7 days, compound 2 200 mg/kg, indomethacin 20 mg/kg, voltaren 50 mg/kg, aminoguanidine 200 mg/kg): 0
ED50 ([7]; Rattus norvegicus, po): 48 ± 4.5 mg/kg
Anti-inflammatory activity in LPS-induced peritonitis model, % of control ([7]; 10.0 mg/kg per os): 2.0 % of control
Anti-inflammatory activity in LPS-induced peritonitis model, % of control ([7]; 25.0 mg/kg per os): 26.0* % of control
Anti-inflammatory activity in LPS-induced peritonitis model, % of control ([7]; 50.0 mg/kg per os): 58.0* % of control
Anti-inflammatory activity in LPS-induced peritonitis model, % of control ([7]; 75.0 mg/kg per os): 78.0* % of control
Anti-inflammatory activity in LPS-induced peritonitis model, % of control ([7]; 100.0 mg/kg per os): 100.0* % of control
Anti-inflammatory activity compared with voltaren and aminoguanidine ([7]; summary of tables 2 and 3 (mice and rat peritonitis models)): somewhat inferior to voltaren in used models, but is better than aminoguanidine
Aggravation of ulceration when combined with 0.6H hydrochloric acid (mice stomach [8]): does not aggravate ulceration
Average ulcerogenic index (4-point scale) of combining the studied compounds with hydrochloric acid (mice stomach [8]; compound 2 100 mg/kg, indomethacin 20 mg/kg, voltaren 50 mg/kg, aminoguanidine 200 mg/kg, 1 hour before 0.6H HCl 5 ml/kg, after 4 hours): 0.15
Anti-inflammatory activity in LPS-induced peritonitis model, % of control ([9]; 25.0 mg/kg per os): 2.2 % of control
Anti-inflammatory activity in LPS-induced peritonitis model, % of control ([9]; 50.0 mg/kg per os): 46.7* % of control
Anti-inflammatory activity in LPS-induced peritonitis model, % of control ([9]; 100.0 mg/kg per os): 88.9* % of control
Anti-inflammatory activity in LPS-induced peritonitis model, % of control ([9]; 200.0 mg/kg per os): 100.0* % of control
Average ulcerogenic index (4-point scale) of single administration of the compounds in 500.0 mg/kg dose (mice stomach [10]; mice fasted 24 h, into the stomach, sacrificed after 6 hours): 0
Irritant effect on gastric mucosa (mice stomach [10]; single administration of 500 mg/kg dose): does not have irritant effect on gastric mucosa
